The series has as its system CCRIS mutagenicity, Ames/micronucleus/aberration tests. As to the kind of experiment: CCRIS mutagenicity studies.
The mark [1] stands for this setting: Test System: AMES SALMONELLA TYPHIMURIUM, Strain/Indicator: TA98, Metabolic Activation: NONE, Method: PREINCUBATION
The mark [2] stands for this setting: Test System: AMES SALMONELLA TYPHIMURIUM, Strain/Indicator: TA100, Metabolic Activation: NONE, Method: PREINCUBATION
Where [3] appears, read: Test System: AMES SALMONELLA TYPHIMURIUM, Strain/Indicator: TA104, Metabolic Activation: NONE, Method: PREINCUBATION
[4] abbreviates: Test System: AMES SALMONELLA TYPHIMURIUM, Strain/Indicator: TA100, Metabolic Activation: NONE, Method: STANDARD PLATE.
The mark [5] stands for this setting: Test System: AMES SALMONELLA TYPHIMURIUM, Strain/Indicator: TA97, Metabolic Activation: NONE, Method: PREINCUBATION
Where [6] appears, read: Test System: AMES SALMONELLA TYPHIMURIUM, Strain/Indicator: TA102, Metabolic Activation: NONE, Method: PREINCUBATION
The mark [7] stands for this setting: Test System: AMES SALMONELLA TYPHIMURIUM, Strain/Indicator: TA98, Metabolic Activation: NONE, Method: STANDARD PLATE.
The mark [8] stands for this setting: Test System: AMES SALMONELLA TYPHIMURIUM, Strain/Indicator: TA98, Metabolic Activation: RAT, LIVER, S-9, AROCLOR 1254, Method: STANDARD PLATE.
Setting [9] is: Test System: AMES SALMONELLA TYPHIMURIUM, Strain/Indicator: TA100, Metabolic Activation: RAT, LIVER, S-9, AROCLOR 1254, Method: STANDARD PLATE.
Setting [10] is: Test System: AMES SALMONELLA TYPHIMURIUM, Strain/Indicator: TA1535, Metabolic Activation: NONE, Method: STANDARD PLATE.
Where [11] appears, read: Test System: AMES SALMONELLA TYPHIMURIUM, Strain/Indicator: TA1535, Metabolic Activation: RAT, LIVER, S-9, AROCLOR 1254, Method: STANDARD PLATE.
The mark [12] stands for this setting: Test System: AMES SALMONELLA TYPHIMURIUM, Strain/Indicator: TA1537, Metabolic Activation: NONE, Method: STANDARD PLATE.
Where [13] appears, read: Test System: AMES SALMONELLA TYPHIMURIUM, Strain/Indicator: TA1537, Metabolic Activation: RAT, LIVER, S-9, AROCLOR 1254, Method: STANDARD PLATE.
Where [14] appears, read: Test System: AMES SALMONELLA TYPHIMURIUM, Strain/Indicator: TA1538, Metabolic Activation: NONE, Method: STANDARD PLATE.
[15] abbreviates: Test System: AMES SALMONELLA TYPHIMURIUM, Strain/Indicator: TA1538, Metabolic Activation: RAT, LIVER, S-9, AROCLOR 1254, Method: STANDARD PLATE.

Each structure is given as a SMILES string. The source made the active and inactive calls. How the calls were made is not given here.

For `CC=C(Cl)Cl`, the mutagenic call was “active; positive” (Test System: AMES SALMONELLA TYPHIMURIUM, Strain/Indicator: RSJ100, Metabolic Activation: NONE, Method: PREINCUBATION); “active; positive” (Test System: AMES SALMONELLA TYPHIMURIUM, Strain/Indicator: RSJ100, Metabolic Activation: NONE, Method: VAPOR PHASE); “inactive; negative” under setting [1]; “inactive; negative” (Test System: AMES SALMONELLA TYPHIMURIUM, Strain/Indicator: TA98, Metabolic Activation: RAT, LIVER, S-9, AROCLOR, Method: PREINCUBATION); “inactive; negative” under setting [2]; “inactive; negative” (Test System: AMES SALMONELLA TYPHIMURIUM, Strain/Indicator: TA100, Metabolic Activation: RAT, LIVER, S-9, AROCLOR, Method: PREINCUBATION). The mutagenic call reads like this: under setting [3], “inactive; negative”; (Test System: AMES SALMONELLA TYPHIMURIUM, Strain/Indicator: TA104, Metabolic Activation: RAT, LIVER, S-9, AROCLOR, Method: PREINCUBATION) “inactive; negative”; (Test System: AMES SALMONELLA TYPHIMURIUM, Strain/Indicator: TA1535, Metabolic Activation: NONE, Method: PREINCUBATION) “inactive; negative”; (Test System: AMES SALMONELLA TYPHIMURIUM, Strain/Indicator: TA1535, Metabolic Activation: RAT, LIVER, S-9, AROCLOR, Method: PREINCUBATION) “inactive; negative”; (Test System: AMES SALMONELLA TYPHIMURIUM, Strain/Indicator: TPT100, Metabolic Activation: NONE, Method: PREINCUBATION) “inactive; negative”; (Test System: AMES SALMONELLA TYPHIMURIUM, Strain/Indicator: TPT100, Metabolic Activation: NONE, Method: VAPOR PHASE) “active; positive”.

As to `CCC(C)NC(=O)C=Cc1ccc([N+](=O)[O-])o1` (stereo unspecified), the mutagenic call under setting [1] was “active; positive”.

For the compound `Fc1ccc2c3c(cccc13)-c1c-2ccc2ccccc12`, the mutagenic call (Test System: AMES SALMONELLA TYPHIMURIUM, Strain/Indicator: TA97A, Metabolic Activation: RAT, LIVER, S-9, AROCLOR 1254, Method: PREINCUBATION) is “active; positive”; the mutagenic call (Test System: AMES SALMONELLA TYPHIMURIUM, Strain/Indicator: TA98, Metabolic Activation: RAT, LIVER, S-9, AROCLOR 1254, Method: PREINCUBATION) was “active; positive”; the mutagenic call (Test System: AMES SALMONELLA TYPHIMURIUM, Strain/Indicator: TA100, Metabolic Activation: RAT, LIVER, S-9, AROCLOR 1254, Method: PREINCUBATION) was “active; positive”.

`COC(=O)[C@H]1O[C@H]1c1ccccc1`: the mutagenic call under setting [4] is “active; positive”.

`O=C(O)Cc1ccc(Cl)cc1`: the mutagenic call was “inactive; negative” under setting [1]; “inactive; negative” (Test System: AMES SALMONELLA TYPHIMURIUM, Strain/Indicator: TA98, Metabolic Activation: RAT LIVER S-9, PCB, Method: PREINCUBATION); “inactive; negative” under setting [2]; “inactive; negative” (Test System: AMES SALMONELLA TYPHIMURIUM, Strain/Indicator: TA100, Metabolic Activation: RAT LIVER S-9, PCB, Method: PREINCUBATION); “inactive; negative” under setting [3]; “inactive; negative” (Test System: AMES SALMONELLA TYPHIMURIUM, Strain/Indicator: TA104, Metabolic Activation: RAT LIVER S-9, PCB, Method: PREINCUBATION). The mutagenic call (Test System: E.COLI, Strain/Indicator: WP2 UVRA, Metabolic Activation: NONE, Method: PREINCUBATION) is “inactive; negative” and the mutagenic call (Test System: E.COLI, Strain/Indicator: WP2 UVRA, Metabolic Activation: RAT LIVER S-9, PCB, Method: PREINCUBATION) is “inactive; negative”.

Take `O=C([O-])[O-].[Mn+2]`: the mutagenic call was “inactive; negative” under setting [5]; “inactive; negative” (Test System: AMES SALMONELLA TYPHIMURIUM, Strain/Indicator: TA97, Metabolic Activation: S-9, Method: PREINCUBATION); “inactive; negative” under setting [6]; “inactive; negative” (Test System: AMES SALMONELLA TYPHIMURIUM, Strain/Indicator: TA102, Metabolic Activation: S-9, Method: PREINCUBATION).

Consider `CC(C)[C@@H]1CC[C@@H](C)C[C@H]1O`, for which the mutagenic call was “inactive; negative” under setting [5]; “inactive; negative” (Test System: AMES SALMONELLA TYPHIMURIUM, Strain/Indicator: TA97, Metabolic Activation: RAT, LIVER, S-9, AROCLOR 1254, Method: PREINCUBATION); “inactive; negative” (Test System: AMES SALMONELLA TYPHIMURIUM, Strain/Indicator: TA97A, Metabolic Activation: NONE, Method: STANDARD PLATE); “inactive; negative” (Test System: AMES SALMONELLA TYPHIMURIUM, Strain/Indicator: TA97A, Metabolic Activation: RAT LIVER S-9, AROCLOR 1254, Method: STANDARD PLATE); “inactive; negative” under setting [7]; “inactive; negative” (Test System: AMES SALMONELLA TYPHIMURIUM, Strain/Indicator: TA98, Metabolic Activation: RAT LIVER S-9, AROCLOR 1254, Method: STANDARD PLATE). Moreover, the mutagenic call is, setting by setting: under setting [8], “inactive; negative”; under setting [4], “inactive; negative”; (Test System: AMES SALMONELLA TYPHIMURIUM, Strain/Indicator: TA100, Metabolic Activation: RAT LIVER S-9, AROCLOR 1254, Method: STANDARD PLATE) “inactive; negative”; under setting [9], “inactive; negative”; under setting [6], “inactive; negative”; (Test System: AMES SALMONELLA TYPHIMURIUM, Strain/Indicator: TA102, Metabolic Activation: NONE, Method: STANDARD PLATE) “inactive; negative”. Besides, the mutagenic call reads like this: (Test System: AMES SALMONELLA TYPHIMURIUM, Strain/Indicator: TA102, Metabolic Activation: RAT LIVER S-9, AROCLOR 1254, Method: STANDARD PLATE) “inactive; negative”; (Test System: AMES SALMONELLA TYPHIMURIUM, Strain/Indicator: TA102, Metabolic Activation: RAT, LIVER, S-9, AROCLOR 1254, Method: PREINCUBATION) “inactive; negative”; under setting [10], “inactive; negative”; under setting [11], “inactive; negative”; under setting [12], “inactive; negative”; under setting [13], “inactive; negative”.

Turning to `CN(CCO)C(=O)Nc1ccccc1`, the mutagenic call under setting [7] is “inactive; negative”; the mutagenic call under setting [8] was “inactive; negative”; the mutagenic call under setting [4] is “inactive; negative”; the mutagenic call under setting [9] was “inactive; negative”; the mutagenic call under setting [10] was “inactive; negative”; the mutagenic call under setting [11] is “inactive; negative”. Besides, the mutagenic call is, setting by setting: under setting [12], “inactive; negative”; under setting [13], “inactive; negative”; under setting [14], “inactive; negative”; under setting [15], “inactive; negative”.

As for `O=C(O)/C=C/C(=O)CC(=O)CC(=O)O`, under “Test System: CHINESE HAMSTER V-79, Strain/Indicator: V-79 (HGPRT)/6-THIOGUANINE, Metabolic Activation: NONE”, the mutagenic call is “active; positive”.

Take `CCCCCCC(CCCC)COc1ccc(-c2ccc(-c3ccc(-c4ccc(OCC(CCCC)CCCCCC)cc4)cc3)cc2)cc1` (stereo unspecified): the mutagenic call is, setting by setting: under setting [14], “inactive; negative”; under setting [15], “inactive; negative”.

On to `Cc1nc(-c2ccc([N+](=O)[O-])o2)cs1`, for which the mutagenic call (Test System: AMES SALMONELLA TYPHIMURIUM, Strain/Indicator: TA100, Metabolic Activation: RAT, LIVER, S-9, KC500 OR PHENOBARBITAL, Method: LIQUID SUSPENSION) was “active; positive”.

(Values after PubChem BioAssay AID1259407 (Chemical Carcinogenesis Research Information System (CCRIS), 2018).)
